{"source": "patent US11453660B2", "about": "“Androgen receptor and glucocorticoid receptor modulators” (ONCOSTELLAE, S.L., priority 2017, dated 2022)", "note": "pIC50: −log10 of the molar value.", "data": [{"target": "T1, human androgen receptor (Homo sapiens, UniProt P10275, T878A)", "T1 construct": "endogenously expressed human androgen receptor using the LnCap prostate cancer cell line; endogenous in cells; host or cells: LNCaP prostate cancer cell line (whole cells)", "T1 sequence (P10275 1-920 T878A)": "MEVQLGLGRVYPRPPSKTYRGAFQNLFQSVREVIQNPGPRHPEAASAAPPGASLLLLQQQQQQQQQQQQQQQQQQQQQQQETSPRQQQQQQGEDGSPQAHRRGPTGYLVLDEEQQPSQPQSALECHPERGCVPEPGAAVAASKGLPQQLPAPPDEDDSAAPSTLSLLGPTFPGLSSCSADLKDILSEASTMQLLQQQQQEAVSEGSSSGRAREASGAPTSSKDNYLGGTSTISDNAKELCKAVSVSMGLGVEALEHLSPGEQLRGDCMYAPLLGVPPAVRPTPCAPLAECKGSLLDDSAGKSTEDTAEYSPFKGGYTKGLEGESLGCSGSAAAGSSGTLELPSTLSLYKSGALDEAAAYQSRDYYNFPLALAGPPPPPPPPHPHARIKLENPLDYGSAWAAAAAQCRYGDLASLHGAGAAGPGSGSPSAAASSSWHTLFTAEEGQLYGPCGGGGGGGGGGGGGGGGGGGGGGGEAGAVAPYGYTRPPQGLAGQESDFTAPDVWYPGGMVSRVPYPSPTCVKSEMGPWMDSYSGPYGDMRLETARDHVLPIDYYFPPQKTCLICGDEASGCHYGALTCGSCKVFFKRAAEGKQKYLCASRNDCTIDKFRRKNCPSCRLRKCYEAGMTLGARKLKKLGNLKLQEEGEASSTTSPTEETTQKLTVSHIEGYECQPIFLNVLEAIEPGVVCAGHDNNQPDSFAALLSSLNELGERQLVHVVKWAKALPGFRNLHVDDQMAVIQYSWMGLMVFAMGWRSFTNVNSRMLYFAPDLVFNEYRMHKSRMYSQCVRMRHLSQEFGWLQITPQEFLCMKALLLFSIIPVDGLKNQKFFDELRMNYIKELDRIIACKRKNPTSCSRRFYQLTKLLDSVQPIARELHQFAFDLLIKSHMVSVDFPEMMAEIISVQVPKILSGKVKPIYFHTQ", "experiment": "Human Androgen Receptor Binding (radioligand binding, LnCap prostate cancer cell line)", "details": "LnCap cells, displacement of [^3H]-methyltrienolone, 2 hours at 37° C.; read-out: AR LNCaP", "procedure": "Human Androgen Receptor Binding\nRadioligand binding studies were carried out on endogenously expressed human androgen receptor using the LnCap prostate cancer cell line. The test is based on measuring radioactively labelled AR ligand [^3H]-methyltrienolone that gets displaced by increasing concentrations of test compound. The test is performed in 96-well plates (Falcon, #353072). Positive and negative controls are also required in each analyzed plate to evaluate the total and non-specific binding binding of the radioligand to the receptor. Cells (60000 per well) were incubated for 24 hours before executing the experiment at 37° C. and in a 5% CO2 atmosphere. Medium was replaced by assay buffer (RPMI-640 (ATCC #30-2001) supplemented with 0.1% bovine serum albumin (Sigma #8806-56) and Triamcinolone acetonide (Sigma #T6501)). The compounds at the desired concentrations and [^3H]methyltrienolone (Perkin Elmer #NET590) were added to the wells.\nIn order to obtain a dose-response curve and calculate the potency of inhibition (expressed as IC50) for AR, a series of 1:10 dilutions in test in 1× buffer from 10 μM to 0.1 nM for each compound was carried out.\nCells were incubated for 2 hours at 37° C. in a 5% CO2 atmosphere and then washed twice with ice-cold HBSS. Then cells were lysed with solubilization buffer (Hank's Balanced Salt Solution (HBSS, Sigma #H6648), 0.5% Sodium dodecyl sulfate 0.5% (SDS, Sigma #L7390-500G, Lote: 078K0102) and 20% Glycerol (Sigma Aldrich, #G2025) for 30 minutes at RT. 75 μL aliquots were taken from each well and transferred to a 96-well flexiplate (Perkin Elmer #1450-401) and mixed with 100 μL of scintillation cocktail (Optiphase supermix, PerkinElmer, #1200-439). Plates are shaken for 60 minutes and radioactivity was measured in a beta scintillation counter (Microbeta Trilux, Perkin Elmer).", "values": [{"smiles": "CC(=O)C1=C(C)NC(C)=C(C(=O)OCC2CC2)C1c1csc2ccc(Cl)cc12", "note": "(stereo not drawn) [Example C32, Cyclopropylmethyl 5-acetyl-4-(5-chlorobenzo[b]thiophen-3-yl)-2,6-dimethyl-1,4-dihydropyridine-3-carboxylate]", "pIC50": "≤ 6.00"}, {"smiles": "CC(=O)C1=C(C)NC(C)=C(C(=O)OCC2CCCCC2)C1c1csc2ncccc12", "note": "(stereo not drawn) [Example C34, Cyclohexylmethyl 5-acetyl-2,6-dimethyl-4-(thieno[2,3-b]pyridin-3-yl)-1,4-dihydropyridine-3-carboxylate]", "pIC50": "≤ 6.00"}, {"smiles": "CC(=O)C1=C(C)NC(C)=C(C(=O)OC2CCCC2)C1c1csc2ncccc12", "note": "(stereo not drawn) [Example C37, Cyclopentyl 5-acetyl-2,6-dimethyl-4-(thieno[2,3-b]pyridin-3-yl)-1,4-dihydropyridine-3-carboxylate]", "pIC50": "> 7.00"}, {"smiles": "COC(=O)C1=C(C(F)(F)F)NC(C)=C(C(C)=O)C1c1csc2ccc(Cl)cc12", "note": "(stereo not drawn) [Example C38, Methyl 5-acetyl-4-(5-chlorobenzo[b]thiophen-3-yl)-6-methyl-2-(trifluoromethyl)-1,4-dihydropyridine-3-carboxylate]", "pIC50": "> 7.00"}, {"smiles": "CC(=O)C1=C(C)NC(C(F)(F)F)=C(C(=O)OCc2ccccc2)C1c1csc2ccccc12", "note": "(stereo not drawn) [Example C45, Benzyl 5-acetyl-4-(benzo[b]thiophen-3-yl)-6-methyl-2-(trifluoromethyl)-1,4-dihydropyridine-3-carboxylate]", "pIC50": "≤ 6.00"}, {"smiles": "CC(=O)C1=C(C)NC(C)=C(C(=O)OCc2ccc(F)cc2)C1c1csc2ncccc12", "note": "(stereo not drawn) [Example C47, 4-Fluorobenzyl 5-acetyl-2,6-dimethyl-4-(thieno[2,3-b]pyridin-3-yl)-1,4-dihydropyridine-3-carboxylate]", "pIC50": "6.00 to 7.00"}, {"smiles": "COC(=O)C1=C(C(F)(F)F)NC(C)=C(C(C)=O)C1c1csc2ncccc12", "note": "(stereo not drawn) [Example C53, Methyl 5-acetyl-6-methyl-4-(thieno[2,3-b]pyridin-3-yl)-2-(trifluoromethyl)-1,4-dihydropyridine-3-carboxylate]", "pIC50": "> 7.00"}, {"smiles": "COC(=O)C1=C(C2CC2)NC(C)=C(C(C)=O)C1c1csc2ccc(Cl)cc12", "note": "(stereo not drawn) [Example J25, Methyl 5-acetyl-4-(5-chlorobenzo[b]thiophen-3-yl)-2-cyclopropyl-6-methyl-1,4-dihydropyridine-3-carboxylate]", "pIC50": "6.00 to 7.00"}, {"smiles": "COC(=O)C1=C(C2CC2)NC(C)=C(C(C)=O)C1c1csc2c(C(=O)OC)cccc12", "note": "(stereo not drawn) [Example J29, Methyl 5-acetyl-2-cyclopropyl-4-(7-(methoxycarbonyl)benzo[b]thiophen-3-yl)-6-methyl-1,4-dihydropyridine-3-carboxylate]", "pIC50": "6.00 to 7.00"}, {"smiles": "COC(=O)C1=C(C2CC2)NC(C)=C(C(C)=O)C1c1csc2c(C(=O)O)cccc12", "note": "(stereo not drawn) [Example J30, 3-(3-Acetyl-6-cyclopropyl-5-(methoxycarbonyl)-2-methyl-1,4-dihydropyridin-4-yl)benzo[b]thiophene-7-carboxylicacid]", "pIC50": "≤ 6.00"}, {"smiles": "CC(=O)C1=C(C)NC(C)=C(C(C)=O)C1c1csc2c(C#N)cccc12", "note": "[Example J40, 3-(3,5-diacetyl-2,6-dimethyl-1,4-dihydropyridin-4-yl)benzo[b]thiophene-7-carbonitrile]", "pIC50": "≤ 6.00"}]}, {"target": "T2, Human Glucocorticoid Receptor (Homo sapiens, UniProt P04150)", "T2 construct": "endogenous in cells; host or cells: cytosol from IM-9 cell line", "T2 sequence (P04150 1-777)": "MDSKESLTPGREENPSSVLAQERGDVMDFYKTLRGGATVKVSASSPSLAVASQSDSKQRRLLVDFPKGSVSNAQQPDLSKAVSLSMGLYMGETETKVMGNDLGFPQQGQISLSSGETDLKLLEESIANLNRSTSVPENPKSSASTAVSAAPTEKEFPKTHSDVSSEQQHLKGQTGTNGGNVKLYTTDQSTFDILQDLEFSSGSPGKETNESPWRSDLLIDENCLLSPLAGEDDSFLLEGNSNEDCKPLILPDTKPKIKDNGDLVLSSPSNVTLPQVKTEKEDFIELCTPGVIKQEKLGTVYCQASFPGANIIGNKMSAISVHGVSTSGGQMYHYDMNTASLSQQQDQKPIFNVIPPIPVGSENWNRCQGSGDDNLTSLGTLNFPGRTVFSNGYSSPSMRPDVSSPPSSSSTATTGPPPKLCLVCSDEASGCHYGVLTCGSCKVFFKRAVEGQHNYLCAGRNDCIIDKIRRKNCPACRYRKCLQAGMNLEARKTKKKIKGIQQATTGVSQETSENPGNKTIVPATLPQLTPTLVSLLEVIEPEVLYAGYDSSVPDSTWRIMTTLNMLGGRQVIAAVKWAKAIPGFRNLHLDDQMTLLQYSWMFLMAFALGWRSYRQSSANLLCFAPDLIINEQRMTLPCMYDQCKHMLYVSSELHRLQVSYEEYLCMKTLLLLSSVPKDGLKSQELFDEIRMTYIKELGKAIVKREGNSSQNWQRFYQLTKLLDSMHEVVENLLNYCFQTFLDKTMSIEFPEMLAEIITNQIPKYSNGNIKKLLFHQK", "experiment": "Competition Binding in IM-9 Human Glucocorticoid Receptor (GR IM-9)", "details": "cytosol from IM-9 cell line, 1.5 nM [3H]-Dexamethasone, 4° C. for 6 hours", "procedure": "Competition Binding in IM-9 Human Glucocorticoid Receptor (GR IM-9)\nGlucocorticoid receptor competition binding assays were carried out in a polypropilene 96-well plate. In each well was incubated 100 μg of cytosol from IM-9 cell line, 1.5 nM [3H]-Dexamethasone (71 Ci/mmol, 1 mCi/ml, Perkin Elmer NET1192001MC) and compounds studied and standard. Non-specific binding was determined in the presence of Triamcinolone 10 μM (Sigma Aldrich T6376).\nThe reaction mixture (Vt: 200 μl/well) was incubated at 4° C. for 6 hours, 180 μL was transferred to GF/B 96-well plate (Millipore, Madrid, Spain) pretreated with 0.5% of PEI and treated with binding buffer (TES 10 mM, sodium molybdate 10 mM, EDTA 1 mM, pH 7.4, 2-mercaptoethanol 20 mM, Glycerol 10%) after was filtered and washed six times with 250 μl wash buffer (TES 10 mM, sodium molybdate 10 mM, EDTA 1 mM, pH 7.4, 2-mercaptoethanol 20 mM Glycerol 10%), before measuring in a microplate beta scintillation counter (Microbeta Trilux, PerkinElmer, Madrid, Spain).", "values": [{"smiles": "CC(=O)C1=C(C)NC(C)=C(C(=O)OCC2CCCCC2)C1c1csc2ncccc12", "note": "(stereo not drawn) [Example C34, Cyclohexylmethyl 5-acetyl-2,6-dimethyl-4-(thieno[2,3-b]pyridin-3-yl)-1,4-dihydropyridine-3-carboxylate]", "pIC50": "> 7.00"}, {"smiles": "CC(=O)C1=C(C)NC(C)=C(C(=O)OC2CCCC2)C1c1csc2ncccc12", "note": "(stereo not drawn) [Example C37, Cyclopentyl 5-acetyl-2,6-dimethyl-4-(thieno[2,3-b]pyridin-3-yl)-1,4-dihydropyridine-3-carboxylate]", "pIC50": "> 7.00"}, {"smiles": "CC(=O)C1=C(C)NC(C)=C(C(=O)OCc2ccc(F)cc2)C1c1csc2ncccc12", "note": "(stereo not drawn) [Example C47, 4-Fluorobenzyl 5-acetyl-2,6-dimethyl-4-(thieno[2,3-b]pyridin-3-yl)-1,4-dihydropyridine-3-carboxylate]", "pIC50": "> 7.00"}, {"smiles": "COC(=O)C1=C(C2CC2)NC(C2CC2)=C(C(=O)OC)C1c1csc2ccc(Cl)cc12", "note": "[Example J25-a, Dimethyl 4-(5-chlorobenzo[b]thiophen-3-yl)-2,6-dicyclopropyl-1,4-dihydropyridine-3,5-dicarboxylate]", "pIC50": "6.00 to 7.00"}, {"smiles": "CC(=O)C1=C(C)NC(C2CC2)=C(C(=O)OCc2ccncc2)C1c1csc2ncccc12", "note": "(stereo not drawn) [Example J36, Pyridin-4-ylmethyl 5-acetyl-2-cyclopropyl-6-methyl-4-(thieno[2,3-b]pyridin-3-yl)-1,4-dihydropyridine-3-carboxylate]", "pIC50": "≤ 6.00"}, {"smiles": "O=C(OCc1ccc(F)cc1)C1=C(C2CC2)NC(C2CC2)=C(C(=O)OCc2ccc(F)cc2)C1c1csc2ncccc12", "note": "[Example J42-a, bis(4-fluorobenzyl) 2,6-dicyclopropyl-4-(thieno[2,3-b]pyridin-3-yl)-1,4-dihydropyridine-3,5-dicarboxylate]", "pIC50": "6.00 to 7.00"}, {"smiles": "CC(=O)C1=C(C)NC(C)=C(C(=O)OCc2ccnc(-c3ccncc3)c2)C1c1csc2ncccc12", "note": "(stereo not drawn) [Example L12, [2,4′-bipyridin]-4-ylmethyl 5-acetyl-2,6-dimethyl-4-(thieno[2,3-b]pyridin-3-yl)-1,4-dihydropyridine-3-carboxylate]", "pIC50": "6.00 to 7.00"}, {"smiles": "COC(=O)C1=C(C2CC2)NC(C)=C(C(C)=O)C1c1csc2c(-c3ccncc3)cccc12", "note": "(stereo not drawn) [Example L13, Methyl 5-acetyl-2-cyclopropyl-6-methyl-4-(7-(pyridin-4-yl)benzo[b]thiophen-3-yl)-1,4-dihydropyridine-3-carboxylate]", "pIC50": "6.00 to 7.00"}, {"smiles": "COC(=O)C1=C(C2CC2)NC(C)=C(C(C)=O)C1c1csc2c(C3CC3)cccc12", "note": "(stereo not drawn) [Example L14, Methyl 5-acetyl-2-cyclopropyl-4-(7-cyclopropylbenzo[b]thiophen-3-yl)-6-methyl-1,4-dihydropyridine-3-carboxylate]", "pIC50": "≤ 6.00"}, {"smiles": "COC(=O)C1=C(C2CC2)NC(C)=C(C(C)=O)C1c1csc2c(-c3ccccc3)cccc12", "note": "(stereo not drawn) [Example N1, Methyl 5-acetyl-2-cyclopropyl-6-methyl-4-(7-phenylbenzo[b]thiophen-3-yl)-1,4-dihydropyridine-3-carboxylate]", "pIC50": "≤ 6.00"}]}]}
